From ChEMBL document CHEMBL1149293, “Identification of 7-phenylaminothieno- [3,2-b]pyridine-6-carbonitriles as a new class of Src kinase inhibitors” (J Med Chem, 2004)

Molecular target: Proto-oncogene tyrosine-protein kinase Src (Homo sapiens, UniProt P12931)
Experiment: Inhibition of Src kinase

Proto-oncogene tyrosine-protein kinase Src, sequence (P12931 2-536 limits assumed): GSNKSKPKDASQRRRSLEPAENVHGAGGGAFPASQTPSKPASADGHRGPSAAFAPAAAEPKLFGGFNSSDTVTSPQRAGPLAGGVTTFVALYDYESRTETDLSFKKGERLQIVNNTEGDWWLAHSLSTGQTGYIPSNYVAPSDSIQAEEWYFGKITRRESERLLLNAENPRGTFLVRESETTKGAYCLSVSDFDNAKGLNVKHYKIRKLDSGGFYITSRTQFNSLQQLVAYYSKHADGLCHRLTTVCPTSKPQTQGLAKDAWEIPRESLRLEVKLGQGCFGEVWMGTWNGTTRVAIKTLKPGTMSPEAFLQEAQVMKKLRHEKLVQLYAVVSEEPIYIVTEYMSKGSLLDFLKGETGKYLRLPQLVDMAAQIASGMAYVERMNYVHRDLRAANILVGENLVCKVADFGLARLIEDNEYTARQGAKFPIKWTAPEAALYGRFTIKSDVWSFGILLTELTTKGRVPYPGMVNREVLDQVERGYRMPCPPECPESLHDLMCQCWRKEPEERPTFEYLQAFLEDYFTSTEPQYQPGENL

IC50 [µM] | SMILES
> 10 | COc1cc(Nc2c(C#N)cnc3c(-c4ccc(CN5CCOCC5)cc4)csc23)c(Cl)cc1Cl
> 10 | COc1cc(Nc2c(C#N)cnc3cc(-c4ccccc4N4CCN(C)CC4)sc23)c(Cl)cc1Cl
